The target of the experiment is Poly(ADP-ribose) glycohydrolase (Homo sapiens, UniProt Q86W56). Put plainly: PARG Biochemical Assay. To be noted: pH 7.4. As to the method:
Briefly, PARG in vitro assays were conducted in a total volume of 15 μL in a standard 384-well format. A total of 5 μL of human full length PARG (AstraZeneca), used at a final reaction concentration of 65 pM, was added to 5 μL of Bt-NAD ribosylated PARP1 substrate (AstraZeneca) at a final reaction concentration of 4.8 nM in assay buffer (50 mM Tris pH 7.4, 0.1 mg mL−1 BSA, 3 mM EDTA, 0.4 mM EGTA, 1 mM DTT, 0.01% Tween 20, 50 mM KCl). The reaction was incubated at RT for 10 min, and then 5 μL of detection reagent was added. Detection reagent consists of 42 nM mAb anti-6HIS XL665 (CisBio: 61HISXLB) and2.25 nM streptavidin europium cryptate (CisBio: 610SAKLB), both at 3× working stock concentrations (final concentrations of 14 nM and 0.75 nM, respectively), in detection buffer (50 mM Tris pH 7.4, 0.1 mg mL−1 BSA and 100 mM KF). Following incubation at RT for 60 min in the dark, TR-FRET signal was measured at λEx 340 nm and λEm 665 nm and λEm
Poly(ADP-ribose) glycohydrolase, sequence (Q86W56 whole entry): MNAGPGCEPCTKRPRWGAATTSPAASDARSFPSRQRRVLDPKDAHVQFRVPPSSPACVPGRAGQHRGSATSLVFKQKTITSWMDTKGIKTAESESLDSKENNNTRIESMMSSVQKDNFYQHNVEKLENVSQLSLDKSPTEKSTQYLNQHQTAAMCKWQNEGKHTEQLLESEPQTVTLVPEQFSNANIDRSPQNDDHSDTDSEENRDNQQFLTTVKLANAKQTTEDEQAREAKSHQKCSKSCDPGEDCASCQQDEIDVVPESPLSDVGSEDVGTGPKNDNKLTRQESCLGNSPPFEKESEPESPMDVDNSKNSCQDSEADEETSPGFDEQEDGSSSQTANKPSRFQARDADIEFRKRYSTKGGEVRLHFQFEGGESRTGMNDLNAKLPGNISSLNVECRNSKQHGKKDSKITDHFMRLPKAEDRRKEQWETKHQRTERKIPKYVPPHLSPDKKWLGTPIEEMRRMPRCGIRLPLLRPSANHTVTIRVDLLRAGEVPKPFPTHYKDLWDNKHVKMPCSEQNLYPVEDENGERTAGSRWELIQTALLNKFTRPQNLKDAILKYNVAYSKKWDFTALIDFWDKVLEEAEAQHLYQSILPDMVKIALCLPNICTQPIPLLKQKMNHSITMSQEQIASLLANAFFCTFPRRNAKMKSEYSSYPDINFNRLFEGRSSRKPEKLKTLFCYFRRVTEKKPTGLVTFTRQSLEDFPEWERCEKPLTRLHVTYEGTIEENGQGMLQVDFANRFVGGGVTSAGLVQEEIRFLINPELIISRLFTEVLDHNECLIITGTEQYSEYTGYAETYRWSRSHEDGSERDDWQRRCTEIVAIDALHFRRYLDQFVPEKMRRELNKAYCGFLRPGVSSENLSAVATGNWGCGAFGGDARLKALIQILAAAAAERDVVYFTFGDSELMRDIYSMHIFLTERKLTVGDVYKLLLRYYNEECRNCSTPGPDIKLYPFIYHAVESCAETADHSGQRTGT
For orientation: IC50 means the point on the concentration scale where inhibition reaches its midpoint. Low values mean inhibition by little substance, high ones a need for much substance. On to `CC(C)(C)NS(=O)(=O)c1ccc2c(c1)C(=O)c1ccccc1C2=O` [PDD00013907 (1)], for which the IC50 is more than 60000 nM. Turning to `Cc1nc(C)c(Cn2c(=O)n(-c3ncns3)c3cc(S(=O)(=O)N(C)C4(C)CC4)ccc32)s1` [PDD00031705 (7)], the IC50 was more than 60000 nM.

For `Cc1cc(Cn2c(=O)n(Cc3cnc(C)s3)c(=O)c3cc(S(=O)(=O)NC4(C)CC4)ccc32)n(C)n1` [PDD00017273 (4)], the IC50 came to 26 nM.

As to `Cc1cc(Cn2c(=O)n(Cc3cnc(C)s3)c(=O)c3cc(S(=O)(=O)N(C)C4(C)CC4)ccc32)n(C)n1` [PDD00031704 (6)], the IC50 is more than 60000 nM. With `Cc1nc(C)c(Cn2c(=O)n(-c3ncns3)c3cc(S(=O)(=O)NC4(C)CC4)ccc32)s1` [PDD00017238 (5)] the figure was 40 nM.

Source of the values: BindingDB's records for doi:10.1021/acschembio.6b00609 (University of Manchester, 2016).
